This note sets out measurements from US12668587B2, “Benzimidazolone GLP-1 receptor agonist and use thereof” (HANGZHOU ZHONGMEIHUADONG PHARMACEUTICAL CO., LTD., priority 2020, dated 2026).

For orientation: EC50 means the concentration at which the effect is half-maximal. A word on the Emax: it is the maximal effect, on the per cent scale that the assay sets.

SMILES strings stand for the structures. Like-named read-outs stand apart in the source and are kept apart here.

The experiment addresses Human GLP-1R (Homo sapiens, UniProt P43220). As to the kind of experiment: GLP-1R agonist activity, HTRF cAMP detection in 293A GFP-GLP-1R cells. More on the design: Emax: dose or concentration left out as unconfirmed. As to conditions: for Emax: 293A. On the technique in general: In TR-FRET formats the signal depends on donor and acceptor labels being close together.
[1] abbreviates: cAMP level, 293A GFP-GLP-1R cells, 30 min incubation, geometric mean.

Sequence of Human GLP-1R (P43220 24-463): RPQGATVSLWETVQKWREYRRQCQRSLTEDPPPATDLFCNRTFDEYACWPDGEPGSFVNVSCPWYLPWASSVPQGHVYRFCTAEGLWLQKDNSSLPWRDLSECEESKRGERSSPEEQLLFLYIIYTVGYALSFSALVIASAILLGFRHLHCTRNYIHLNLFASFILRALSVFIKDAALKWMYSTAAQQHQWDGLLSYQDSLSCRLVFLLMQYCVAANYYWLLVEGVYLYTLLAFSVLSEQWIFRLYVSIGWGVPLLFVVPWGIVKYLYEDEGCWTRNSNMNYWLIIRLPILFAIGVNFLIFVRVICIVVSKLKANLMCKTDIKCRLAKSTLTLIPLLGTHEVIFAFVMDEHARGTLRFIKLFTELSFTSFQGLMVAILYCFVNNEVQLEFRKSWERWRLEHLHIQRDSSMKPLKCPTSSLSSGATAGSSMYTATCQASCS
Procedure: GLP-1R-mediated agonist activity was determined by cell-based assays using a homogeneous time-resolved fluorescence (i.e., HTRF)-based cAMP detection kit, which measures the level of cAMP in cells. The method was a competitive immunoassay. It enabled direct pharmacological characterization of compounds acting on Gs-coupled receptors in adherent or suspending cells.
The standard curve of native cAMP or unlabeled cAMP produced by cells competed with d2-labeled cAMP red receptors to bind monoclonal anti-cAMP Eu3+ cryptate donors, and the specific signal was inversely proportional to the concentration of cAMP in standard or tested samples.
Human GLP-1R encoding sequence (NCBI reference sequence NP_002053.3) was subcloned into pEGFP-N1 (tsingke), and the cell line stably expressing the receptor was isolated. The expression density of GLP-1R was confirmed by the expression of GFP observed under a fluorescence microscope.
Cells were collected from a T25 tissue culture flask and centrifuged at room temperature at 1000 rpm for 5 minutes. The cell precipitates were then re-suspended in 1 mL of the stimulating buffer. 20 μL sample of cell suspension was counted on a counter STAR IC 1000 to determine the cell viability and the cell count per mL. The remaining cell suspension was then regulated with the stimulating buffer to deliver 2000 living cells per well using a multi-channel pipette. 5 μL of the cell suspension was added to each well of the plate which already contained the compound. The plate was sealed and incubated at 37° C. with 5% CO2 for 30 minutes.
After 30 minutes of incubation, 5 μL of d2-labeled cAMP and 5 μL of anti-cAMP cryptate (both 1: 20 diluted in the cell lysis buffer) were added to each well of the plate. The plate was then incubated at room temperature for 60 minutes, and the changes of HTRF signal were read with Tecan Spark reader: absorbance values at 340 nm (excitation)/at 615 nm and 665 nm (emission). Raw data were converted into nM cAMP by interpolation from the cAMP standard curve, and the effect in percentage was determined relative to the saturated concentration of the complete agonist GLP-17˜37 (400 nM) contained in each plate. Determination of EC50 was performed based on the agonist dose-response curve, which was analyzed using a four-parameter logical dose-response equation with a curve fitting program.
The test data presented the results in the form of a geometric mean (EC50s) based on the number of repetition times.

For the compound `CC(=O)c1ccc(F)c(COc2cccc(C3CCN(Cc4nc5ccc(C(=O)O)cc5n4C[C@@H]4CCO4)CC3)n2)c1` [Compound 14, (S)-2-((4-(6-((5-acetyl-2-fluorobenzyl)oxy)pyridin-2-yl)piperidin-1-yl)methyl)-1-(oxetan-2-ylmethyl)-1H-benzo[d]imidazole-6-carboxylic acid], the EC50 is 705 nM and the Emax stood at 109%. In the same order, the values of `CC(=O)c1ccc(COc2cccc(C3CCN(Cc4nc5ccc(C(=O)O)cc5n4C[C@@H]4CCO4)CC3)n2)c(OC(F)(F)F)c1` [Compound 21, (S)-2-((4-(6-((4-acetyl-2-(trifluoromethoxy)benzyl)oxy)pyridin-2-yl)piperidin-1-yl)methyl)-1-(oxetan-2-ylmethyl)-1H-benzo[d]imidazole-6-carboxylic acid] are 95.3 nM and 91.8%. The like results for `CC(=O)c1ccc(COc2cccc(C3CCN(Cc4nc5ccc(C(=O)O)nc5n4C[C@@H]4CCO4)CC3)n2)c(F)c1` [Compound 5, (S)-2-((4-(6-((4-acetyl-2-fluorobenzyl)oxy)pyridin-2-yl)piperidin-1-yl)methyl)-3-(oxetan-2-ylmethyl)-3H-imidazo[4,5-b]pyridine-5-carboxylic acid] were, in that order, 0.54 nM and 81.3%. In turn, `O=C(O)c1ccc2nc(CN3CCC(c4cccc(OCc5ccc(C(=O)C6CC6)cc5Cl)n4)CC3)n(C[C@@H]3CCO3)c2c1` [Compound 44, (S)-2-((4-(6-((2-chloro-4-(cyclopropanecarbonyl)benzyl)oxy)pyridin-2-yl)piperidin-1-yl)methyl)-1-(oxetan-2-ylmethyl)-1H-benzo[d]imidazole-6-carboxylic acid] displayed a 50% effective concentration (EC50) of 0.02 nM.

The compound `COc1cc(C(=O)C(C)C)ccc1COc1cccc(C2CCN(Cc3nc4ccc(C(=O)O)cc4n3C[C@@H]3CCO3)CC2)n1` [Compound 32, (S)-2-((4-(6-((4-isobutyryl-2-methoxybenzyl)oxy)pyridin-2-yl)piperidin-1-yl)methyl)-1-(oxetan-2-ylmethyl)-1H-benzo[d]imidazole-6-carboxylic acid] had an EC50 of 416 nM and an Emax of 102%.

On to `CC(=O)c1ccc(COc2cccc(C3CCN(Cc4nc5ccc(C(=O)O)cc5n4C[C@@H]4CCO4)CC3)n2)c(Cl)c1` [Compound 27], for which the half-maximal effective concentration (EC50) came to 0.13 nM and the maximal response (Emax) is 83.9%. The compound `CNC(=O)c1ccc(COc2cccc(C3CCN(Cc4nc5ccc(C(=O)O)cc5n4C[C@@H]4CCO4)CC3)n2)c(F)c1` [Compound 4, (S)-2-((4-(6-((2-fluoro-4-(methylcarbamoyl)benzyl)oxy)pyridin-2-yl)piperidin-1-yl)methyl)-1-(oxetan-2-ylmethyl)-1H-benzo[d]imidazole-6-carboxylic acid] registered a maximum response (Emax) of 68.6%. Besides, a half-maximal effect under setting [1] (EC50) was put at 179 nM.

In the case of `CCOc1cc(C(C)=O)ccc1COc1cccc(C2CCN(Cc3nc4ccc(C(=O)O)cc4n3C[C@@H]3CCO3)CC2)n1` [Compound 30, (S)-2-((4-(6-((4-acetyl-2-ethoxybenzyl)oxy)pyridin-2-yl)piperidin-1-yl)methyl)-1-(oxetan-2-ylmethyl)-1H-benzo[d]imidazole-6-carboxylic acid], the concentration for a half-maximal effect (EC50) stood at 0.91 nM and the Emax is 112%.

Take `CN1CCC(C(=O)c2ccc(COc3cccc(C4CCN(Cc5nc6ccc(C(=O)O)cc6n5C[C@@H]5CCO5)CC4)n3)c(F)c2)CC1` [Compound 29, (S)-2-((4-(6-((2-fluoro-4-(1-methylpiperidin-4-carbonyl)benzyl)oxy)pyridin-2-yl)piperidin-1-yl)methyl)-1-(oxetan-2-ylmethyl)-1H-benzo[d]imidazole-6-carboxylic acid]: the Emax worked out at 7.12%. For the compound `COc1cc(COc2cccc(C3CCN(Cc4nc5ccc(C(=O)O)cc5n4C[C@@H]4CCO4)CC3)n2)c(F)cc1C(=O)C1CC1` [Compound 37, (S)-2-((4-(6-((4-(cyclopropanecarbonyl)-2-fluoro-5-methoxybenzyl)oxy)pyridin-2-yl)piperidin-1-yl)methyl)-1-(oxetan-2-ylmethyl)-1H-benzo[d]imidazole-6-carboxylic acid], the EC50 is 228 nM and the Emax worked out at 68.5%.

Take `CP(C)(=O)c1ccc(COc2cccc(C3CCN(Cc4nc5ccc(C(=O)O)cc5n4C[C@@H]4CCO4)CC3)n2)c(F)c1` [Compound 6, (S)-2-((4-(6-((4-(dimethylphosphoryl)-2-fluorobenzyl)oxy)pyridin-2-yl)piperidin-1-yl)methyl)-1-(oxetan-2-ylmethyl)-1H-benzo[d]imidazole-6-carboxylic acid]: the EC50 was more than 1000 nM and the Emax is 7.07%. In turn, `CC(=O)c1cccc(COc2cccc(C3CCN(Cc4nc5ccc(C(=O)O)cc5n4C[C@@H]4CCO4)CC3)n2)c1F` [Compound 17, (S)-2-((4-(6-((3-acetyl-2-fluorobenzyl)oxy)-pyridin-2-yl)piperidin-1-yl)methyl)-1-(oxetan-2-ylmethyl)-1H-benzo[d]imidazole-6-carboxylic acid] showed a concentration for a half-maximal effect (EC50) of 7.68 nM and an Emax of 104%. The like results for `COc1cc(C(=O)C2CC2)ccc1COc1cccc(C2CCN(Cc3nc4ccc(C(=O)O)cc4n3C[C@@H]3CCO3)CC2)n1` [Compound 20, (S)-2-((4-(6-((4-(cyclopropanecarbonyl)-2-methoxybenzyl)oxy)pyridin-2-yl)piperidin-1-yl)methyl)-1-(oxetan-2-ylmethyl)-1H-benzo[d]imidazole-6-carboxylic acid] were, in that order, 0.31 nM and 120%. Regarding `CC(=O)c1ccc(COc2cccc(C3CCN(Cc4nc5ccc(C(=O)O)cc5n4C[C@@H]4CCO4)CC3)n2)cc1` [Compound 16, (S)-2-((4-(6-((4-acetylbenzyl)oxy)pyridin-2-yl)piperidin-1-yl)methyl)-1-(oxetan-2-ylmethyl)-1H-benzo[d]imidazole-6-carboxylic acid], the EC50 came to 7.19 nM and the maximal response (Emax) was 88.2%. In the same order, the values of `COc1cc(COc2cccc(C3=CCN(Cc4nc5ccc(C(=O)O)cc5n4C[C@@H]4CCO4)CC3)n2)ccc1C(C)=O` [Compound 23, (S)-2-((6-((4-acetyl-3-methoxybenzyl)oxy)-3′,6′-dihydro-[2,4′-bipyridin]-1′(2′H)-yl)methyl)-1-(oxetan-2-ylmethyl)-1H-benzo[d]imidazole-6-carboxylic acid] are 16.1 nM and 108%. `O=C(O)c1ccc2nc(Cc3ccc(-c4cccc(OCc5ccc(C(=O)C6CC6)cc5F)n4)cc3F)n(CC3(CF)CC3)c2c1` [Compound 48] returned a 50% effective concentration (EC50) of 0.065 nM. Regarding `COc1cc(C(=O)C2CC2)cc(F)c1COc1cccc(C2CCN(Cc3nc4ccc(C(=O)O)cc4n3C[C@@H]3CCO3)CC2)n1` [Compound 36, (S)-2-((4-(6-((4-(cyclopropanecarbonyl)-2-fluoro-6-methoxybenzyl)oxy)pyridin-2-yl)piperidin-1-yl)methyl)-1-(oxetan-2-ylmethyl)-1H-benzo[d]imidazole-6-carboxylic acid], the concentration for a half-maximal effect (EC50) turned out to be 20.4 nM and the Emax worked out at 84.9%. Regarding `O=C(O)c1ccc2nc(CN3CCC(c4cccc(OCc5ccc(C(=O)C6CC6)cc5F)n4)CC3)n(CC3(CF)CC3)c2c1` [Compound 47], the midpoint of the response, the EC50, lay at 0.01 nM.

`O=C(O)c1ccc2nc(CN3CCC(c4cccc(OCc5ccc(C(=O)C6CC6)cc5F)n4)CC3)n(C[C@@H]3CCO3)c2c1` [Compound 7, (S)-2-((4-(6-((4-(cyclopropanecarbonyl)-2-fluorobenzyl)oxy)pyridin-2-yl)piperidin-1-yl)methyl)-1-(oxetan-2-ylmethyl)-1H-benzo[d]imidazole-6-carboxylic acid] yielded an Emax of 103%. Further, the EC50 under setting [1] was 0.75 nM.

The compound `CC(=O)c1ccc(COc2cccc(C3CCN(Cc4nc5ccc(C(=O)O)cc5n4C[C@@H]4CCO4)CC3)n2)c(F)c1` [Compound 1, (S)-2-((4-(6-((4-acetyl-2-fluorobenzyl)oxy)pyridin-2-yl)piperidin-1-yl)methyl)-1-(oxetan-2-ylmethyl)-1H-benzo[d]imidazole-6-carboxylic acid] came in with an EC50 of 0.85 nM and an Emax of 111%. In the same order, the values of `CC(=O)c1cccc(COc2cccc(C3CCN(Cc4nc5ccc(C(=O)O)cc5n4C[C@@H]4CCO4)CC3)n2)c1` [Compound 18, (S)-2-((4-(6-((3-acetylbenzyl)oxy)pyridin-2-yl)piperidin-1-yl)methyl)-1-(oxetan-2-ylmethyl)-1H-benzo[d]imidazole-6-carboxylic acid] are 22.1 nM and 113%. Compound `CCn1cnc(Cn2c(CN3CCC(c4cccc(OCc5ccc(C(=O)C6CC6)cc5F)n4)CC3)nc3ccc(C(=O)O)cc32)c1` [Compound 35, 2-((4-(6-((4-(cyclopropanecarbonyl)-2-fluorobenzyl)oxy)pyridin-2-yl)piperidin-1-yl)methyl)-1-((1-ethyl-1H-imidazol-4-yl)methyl)-1H-benzo[d]imidazole-6-carboxylic acid] displayed an EC50 of 32 nM. In turn, `CC(=O)c1ccc(COc2cccc(C3CCN(Cc4nc5ccc(C(=O)O)cc5n4C[C@@H]4CCO4)CC3)n2)nc1` [Compound 9, (S)-2-((4-(6-((5-acetylpyridin-2-yl)methoxy)pyridin-2-yl)piperidin-1-yl)methyl)-1-(oxetan-2-ylmethyl)-1H-benzo[d]imidazole-6-carboxylic acid] showed an EC50 of 27 nM and an Emax of 83.4%.

With `CC(=O)c1ccc(COc2cccc(C3CCN(Cc4nc5ccc(C(=O)O)cc5n4C[C@@H]4CCO4)CC3)n2)cc1F` [Compound 26, (S)-2-((4-(6-((4-acetyl-3-fluorobenzyl)oxy)pyridin-2-yl)piperidin-1-yl)methyl)-1-(oxetan-2-ylmethyl)-1H-benzo[d]imidazole-6-carboxylic acid], the EC50 worked out at 4.57 nM and the maximal effect (Emax) worked out at 94.4%.

For the compound `NC(=O)c1ccc(COc2cccc(C3CCN(Cc4nc5ccc(C(=O)O)cc5n4C[C@@H]4CCO4)CC3)n2)c(F)c1` [Compound 3, (S)-2-((4-(6-((4-carbamoyl-2-fluorobenzyl)oxy)pyridin-2-yl)piperidin-1-yl)methyl)-1-(oxetan-2-ylmethyl)-1H-benzo[d]imidazole-6-carboxylic acid], the Emax was 54.5%. For the same compound, the half-maximal effective concentration (EC50) under setting [1] stood at 75.9 nM.
